Tested on: 282377-053-R-J1-PDC complex spheroid viability
Test: Anticancer human tumor 282377-053-R-J1-PDC patient-derived colon adenocarcinoma cell line growth inhibition [POLQ]
Settings: for IC50: curve of first compound; for viability, T/C: stronger effect = lower value; active = viability on the fitted dose curve at most 10% of control; inactive = the rest
Procedure, shortened: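 Three-cell-type spheroids modelling solid tumor plus stroma served as the readout system; POL inhibitors were tested individually and in combination, concentration ranges set by clinical Cmax where known.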

[1] = second compound 0.0316 µM, first compound 0.0316 µM
[2] = second compound 0.0316 µM, first compound 0.1 µM
[3] = second compound 0.0316 µM, first compound 0.316 µM
[4] = second compound 0.0316 µM, first compound 1 µM
[5] = second compound 0.0316 µM, first compound 3.16 µM
[6] = second compound 0.0316 µM, first compound 10 µM
[7] = second compound 0.1 µM, first compound 0.0316 µM
[8] = second compound 0.1 µM, first compound 0.1 µM
[9] = second compound 0.1 µM, first compound 0.316 µM
[10] = second compound 0.1 µM, first compound 1 µM
[11] = second compound 0.1 µM, first compound 3.16 µM
[12] = second compound 0.1 µM, first compound 10 µM
[13] = second compound 0.316 µM, first compound 0.0316 µM
[14] = second compound 0.316 µM, first compound 0.1 µM
[15] = second compound 0.316 µM, first compound 0.316 µM
[16] = second compound 0.316 µM, first compound 1 µM
[17] = second compound 0.316 µM, first compound 3.16 µM
[18] = second compound 0.316 µM, first compound 10 µM
[19] = second compound 1 µM, first compound 0.0316 µM
[20] = second compound 1 µM, first compound 0.1 µM
[21] = second compound 1 µM, first compound 0.316 µM
[22] = second compound 1 µM, first compound 1 µM
[23] = second compound 1 µM, first compound 3.16 µM
[24] = second compound 1 µM, first compound 10 µM
[25] = second compound 3.16 µM, first compound 0.0316 µM
[26] = second compound 3.16 µM, first compound 0.1 µM
[27] = second compound 3.16 µM, first compound 0.316 µM
[28] = second compound 3.16 µM, first compound 1 µM
[29] = second compound 3.16 µM, first compound 3.16 µM
[30] = second compound 3.16 µM, first compound 10 µM
[31] = second compound 10 µM, first compound 0.0316 µM
[32] = second compound 10 µM, first compound 0.1 µM
[33] = second compound 10 µM, first compound 0.316 µM
[34] = second compound 10 µM, first compound 1 µM
[35] = second compound 10 µM, first compound 3.16 µM
[36] = second compound 10 µM, first compound 10 µM
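Also: spheroids exposed to compounds for seven days.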
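For viability, T/C in this document: 100% = DMSO vehicle control viability.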

CC1COCCN1c1cc(-c2ccnn2C)c2ccnc(-c3ccn[nH]3)c2n1 (centres undefined) + Cc1cccc(N(C)C(=O)C2C(O)CCN2c2nc(C)cc(C(F)(F)F)c2C#N)c1
0.634 µM: IC50 (second compound 10 µM)
0.381 µM: IC50 (second compound 0.0316 µM)
0.362 µM: IC50 (second compound 1 µM)
0.289 µM: IC50 (second compound 0.316 µM)
0.551 µM: IC50 (second compound 0.1 µM)
inactive: viability, T/C [1] 91.3% | viability, T/C [2] 86.4% | viability, T/C [3] 52.6% | viability, T/C [4] 32.6% | viability, T/C [5] 26.3% | viability, T/C [6] 24.5% | viability, T/C [7] 81.3% | viability, T/C [8] 80.9% | viability, T/C [9] 60.6% | viability, T/C [10] 37.4% | viability, T/C [11] 29.4% | viability, T/C [12] 23% | viability, T/C [13] 97% | viability, T/C [14] 90.2% | viability, T/C [15] 44.6% | viability, T/C [16] 38.4% | viability, T/C [17] 24.9% | viability, T/C [18] 21.9% | viability, T/C [19] 93.5% | viability, T/C [20] 68.5% | viability, T/C [21] 54.8% | viability, T/C [22] 36.2% | viability, T/C [23] 27.2% | viability, T/C [24] 22.7% | viability, T/C [25] 83.9% | viability, T/C [26] 70.4% | viability, T/C [27] 61.5% | viability, T/C [28] 33.1% | viability, T/C [29] 29.2% | viability, T/C [30] 22.5% | viability, T/C [31] 78.8% | viability, T/C [32] 71% | viability, T/C [33] 71.6% | viability, T/C [34] 35.8% | viability, T/C [35] 32.2% | viability, T/C [36] 20.8%
0.479 µM: IC50 (second compound 3.16 µM)

CC1COCCN1c1cc(C2(S(C)(=N)=O)CC2)nc(-c2ccnc3[nH]ccc23)n1 (centres undefined) + Cc1cccc(N(C)C(=O)C2C(O)CCN2c2nc(C)cc(C(F)(F)F)c2C#N)c1
> 10 µM: IC50 (second compound 0.1 µM) | IC50 (second compound 0.316 µM) | IC50 (second compound 1 µM) | IC50 (second compound 3.16 µM)
7.38 µM: IC50 (second compound 0.0316 µM)
inactive: viability, T/C [1] 113% | viability, T/C [2] 81.7% | viability, T/C [3] 108% | viability, T/C [4] 77.6% | viability, T/C [5] 66% | viability, T/C [6] 44% | viability, T/C [7] 98.3% | viability, T/C [8] 103% | viability, T/C [9] 77.5% | viability, T/C [10] 84.4% | viability, T/C [11] 71.8% | viability, T/C [12] 54.3% | viability, T/C [13] 91.3% | viability, T/C [14] 101% | viability, T/C [15] 80.8% | viability, T/C [16] 89.5% | viability, T/C [17] 98.2% | viability, T/C [18] 50.2% | viability, T/C [19] 107% | viability, T/C [20] 111% | viability, T/C [21] 83.6% | viability, T/C [22] 86.1% | viability, T/C [23] 69.5% | viability, T/C [24] 52.5% | viability, T/C [25] 93% | viability, T/C [26] 84.4% | viability, T/C [27] 123% | viability, T/C [28] 114% | viability, T/C [29] 64.9% | viability, T/C [30] 49.7% | viability, T/C [31] 90.6% | viability, T/C [32] 73.6% | viability, T/C [33] 89.1% | viability, T/C [34] 80.2% | viability, T/C [35] 55.4% | viability, T/C [36] 42.7%
5.13 µM: IC50 (second compound 10 µM)

— PubChem BioAssay AID1963852 (Molecular Pharmacology Branch, DTP, NCI, 2024)
